Experimental data: patent US20090088482A1, “Compositions and Methods For Treating Heart Failure” (The Trustees Of Columbia University In The City New York, priority 2003, published 2009)
Where a name gives a salt, the structure may show the parent alone.

Key:
[1] = CHF patients, 8 mg b.i.d., three weeks; cited from earlier work
[2] = Cardiopulmonary exercise testing in a patient with NYHA Class III CHF treated with clenbuterol; type: in vivo, human; conditions: 40 mcg b.i.d., six weeks
Method: A patient with New York Heart Association Class III CHF with an ICD, currently taking a heart failure medical regimen, including carvedilol (a non-selective beta-blocking agent), lisinopril (an ACE inhibitor), digoxin and spiranolactone, has shortness of breath on moderate exertion and a peak oxygen consumption of 14 ml/kg/min during cardiopulmonary exercising testing.

Row | Compound | quadriceps bulk, muscle strength or fatigue, exercise capacity, symptom assessment scores [1] | tolerability of dose [2]
1 | CC(C)(C)NCC(O)c1ccc(O)c(CO)c1 (centres unmarked) [salbutamol] | no change | 
2 | CC(C)(C)NCC(O)c1cc(Cl)c(N)c(Cl)c1 (centres unmarked) [clenbuterol hydrochloride, Clenbuterol hydrochloride] |  | well-tolerated
